This passage reports IC50 results from article PMC11249012 (Journal of Medicinal Chemistry, 2024).

This experiment deals with T1, HDAC10 (Homo sapiens, UniProt Q969S8).
T1 sequence (Q969S8 1-669): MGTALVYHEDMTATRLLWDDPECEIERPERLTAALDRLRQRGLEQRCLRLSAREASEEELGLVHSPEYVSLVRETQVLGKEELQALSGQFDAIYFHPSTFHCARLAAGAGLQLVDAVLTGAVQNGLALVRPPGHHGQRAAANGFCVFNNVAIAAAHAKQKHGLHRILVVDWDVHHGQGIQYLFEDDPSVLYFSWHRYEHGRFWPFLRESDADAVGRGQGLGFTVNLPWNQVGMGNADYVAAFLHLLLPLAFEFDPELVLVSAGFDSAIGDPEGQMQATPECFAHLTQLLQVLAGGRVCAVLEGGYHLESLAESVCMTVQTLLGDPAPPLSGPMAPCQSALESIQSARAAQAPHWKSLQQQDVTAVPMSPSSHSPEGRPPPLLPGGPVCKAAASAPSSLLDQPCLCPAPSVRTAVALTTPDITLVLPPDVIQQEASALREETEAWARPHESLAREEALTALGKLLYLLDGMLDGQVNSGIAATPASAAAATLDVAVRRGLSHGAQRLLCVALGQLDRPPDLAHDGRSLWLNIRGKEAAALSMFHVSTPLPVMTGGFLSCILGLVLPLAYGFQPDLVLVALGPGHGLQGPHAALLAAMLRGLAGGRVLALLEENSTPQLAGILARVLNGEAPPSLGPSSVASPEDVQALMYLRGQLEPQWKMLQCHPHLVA
Nature of the experiment: Biochemical assay for HDAC inhibition, HDAC10. The following applies: read-out: IC50 HDAC10; Table 1, purified enzyme; unit inferred.

For `Cn1cc(CNCC2CCN(c3ncc(C(=O)NO)cn3)CC2)c2ccccc21` [quisinostat], the IC50 stood at 6.75 nM.

A word on the IC50: it is the point on the concentration scale where inhibition reaches its midpoint.
